Measurements reported in article PMC3598812, “Evaluation of Anti-Hyperalgesic and Analgesic Effects of Two Benzodiazepines in Human Experimental Pain: A Randomized Placebo-Controlled Study” (PLoS ONE, 2013).
Where two headings read alike, the source gives them in different places.

How the values were obtained:
healthy male volunteers [1] = test: Cutaneous repeated (5 stimuli) electrical stimulation, temporal summation threshold; format: in vivo, human; conditions: mean (SD)
From the text: The stimulus burst used for single stimulus was repeated 5 times at 2 Hz, at constant intensity. The current intensity of the 5 stimuli was increased from 1 mA in steps of 0.5 mA until the subjects felt pain during the last 2–3 of the 5 stimuli (indicating temporal summation).
(§1) Three assessments were made and the mean of these 3 measurements was used for the data analysis.

healthy male volunteers [2] = test: Psychomotor performance, digit symbol substitution test (DSST); conditions: for DSST-score: single oral dose (clobazam 20 mg, clonazepam 1 mg, tolterodine 1 mg), mean (SD)
Experimental: The psychomotor performance was assessed by the digit symbol substitution test (DSST), a subscale of the Wechsler Adult Intelligence Scale. The DSST evaluates the ability to concentrate and modifications in processing information [23]. It is a two-minute paper-and-pencil test. The subject was asked to replace digits with corresponding symbols according to a code given on the same sheet of paper. The score consists in the total number and the correct number of symbols drawn.
Pressure pain, conditioned pain modulation (CPM), intramuscular electrical pain tests, cuff algometry and DSST were performed 120 min after drug intake.
After 15 min, the whole battery of tests was performed.

healthy male volunteers [3] = test: Conditioned pain modulation (cold pressor test and pressure algometry); format: in vivo, human; conditions: difference in pressure pain detection threshold after vs before cold pressor test, mean (SD)
From the text: This method explores the endogenous modulation of nociceptive input. Under normal conditions, pain after application of a “test” nociceptive stimulus is attenuated by the application of an additional conditioning noxious stimulus to a remote body region, reflecting diffuse endogenous inhibition, [20]. In the present study, pressure pain detection threshold and cold pressure test (see below) were used as test and conditioning stimuli, respectively. An increase in pressure pain detection threshold immediately after cold pressure test was an indication of CPM.
The subjects placed their hand into a container filled with ice water. In order to maximize heterotopic stimulation, the hand contralateral to the side of pressure stimulation was used. The water was regularly mixed to maintain the temperature near to 0°C. The temperature of the water near the hand was monitored by a thermometer with a digital display (±0.1°C). The subjects were asked to keep the hand in the water until they felt an intolerable sensation of pain and were forced to remove the hand from the container, with a maximum time of 2 min.
Pressure pain detection threshold was measured again at the same time as the subject was withdrawing the hand from the water (one single measurement). CPM was measured as the difference in pressure pain detection threshold between measurements after and before the cold pressure test.

[4] = trial protocol, cited from earlier work
healthy male volunteers [5] = test: Pain rating (VAS) after graded von Frey hair stimulation in the capsaicin hyperalgesic area; format: in vivo, human
Experimental: Additionally, mechanical pain sensitivity was assessed using a set of seven weighted pinprick stimuli to obtain a stimulus-response function. The test was applied 1 cm inside the outer border of the pinprick hyperalgesic area, using a set of 7 graded von Frey hair mechanical stimulators with fixed stimulus intensities (custom-made at Aalborg University, Denmark). The flat contact area of the stimulators has a 0.2 mm diameter, and the 7 stimulators exert forces of 8, 16, 32, 64, 128, 256 and 512 mN. The order of stimulation was defined randomly by computer. The stimulators were applied at a rate of 2 s on/2 s off. Subjects were asked to give a pain rating for each stimulus on a 10 cm VAS. Two assessments for each stimulation were made and the mean of these 2 measurements was used for the data analysis.

healthy male volunteers [6] = test: Cutaneous single electrical stimulation pain threshold; format: in vivo, human; conditions: mean (SD)
Experimental: Electrical stimulation was performed through electrodes placed distal to the lateral malleolus. A 25 ms, train-of-five, 1 ms, square-wave impulse (perceived as one stimulus), was delivered by a computer-controlled constant current stimulator (Digitimer DS7A, Neurospec, Letchworth Garden City, UK). The current intensity was increased from 1 mA in steps of 0.5 mA until a pain sensation was evoked.
as §1

healthy male volunteers [7] = test: Cutaneous repeated (20 stimuli) electrical stimulation, VAS; format: in vivo, human; design: AUC of VAS during 20 cutaneous electrical stimuli: unit not given beside the values; conditions: mean (SD); for Maximal VAS during 20 cutaneous electrical stimuli: VAS 0-10
Experimental: The stimulus burst used for single stimulus was repeated for a train of 20 pulses at 2 Hz, at an intensity corresponding to the temporal summation threshold. During this 10 s stimulation, pain intensity was continuously rated by the subject with an electronic VAS, and the area under the curve (AUC) was computed. Additionally, the maximal VAS during stimulation was recorded.

healthy male volunteers [8] = test: Area of dynamic mechanical hyperalgesia after intradermal capsaicin (cotton wool stroking); format: in vivo, human; conditions: single oral dose (clobazam 20 mg, clonazepam 1 mg, tolterodine 1 mg), mean (SD)
Experimental: The area of dynamic mechanical hyperalgesia was determined by gently stroking a hand-held cotton wool tip on a 1 cm strip of the skin, at a rate of approximately 1 cm/s. Subjects were asked to report when the sensation changed from a non-painful to a painful sensation. The borders of dynamic hyperalgesia were delineated similarly to the determination of static hyperalgesia.

[9] = baseline before medication, per drug session
[10] = single oral dose (clobazam 20 mg, clonazepam 1 mg, tolterodine 1 mg), 30 min after medication
[11] = single oral dose (clobazam 20 mg, clonazepam 1 mg, tolterodine 1 mg), 60 min after medication
[12] = single oral dose (clobazam 20 mg, clonazepam 1 mg, tolterodine 1 mg), 90 min after medication
[13] = single oral dose (clobazam 20 mg, clonazepam 1 mg, tolterodine 1 mg), 120 min after medication
[14] = single oral dose (clobazam 20 mg, clonazepam 1 mg, tolterodine 1 mg), after flumazenil 0.2 mg iv
[15] = VAS 0-10, single oral dose (clobazam 20 mg, clonazepam 1 mg, tolterodine 1 mg), 30 min after medication, mean (SD)
[16] = VAS 0-10, single oral dose (clobazam 20 mg, clonazepam 1 mg, tolterodine 1 mg), 60 min after medication, mean (SD)
[17] = VAS 0-10, single oral dose (clobazam 20 mg, clonazepam 1 mg, tolterodine 1 mg), 90 min after medication, mean (SD)
[18] = VAS 0-10, single oral dose (clobazam 20 mg, clonazepam 1 mg, tolterodine 1 mg), 120 min after medication, mean (SD)
[19] = VAS 0-10, single oral dose (clobazam 20 mg, clonazepam 1 mg, tolterodine 1 mg), after flumazenil 0.2 mg iv, mean (SD)

## CN1C(=O)CC(=O)N(c2ccccc2)c2cc(Cl)ccc21 [Clobazam]
Healthy male volunteers [1]; [9]
  Pain threshold after 5 cutaneous electrical stimuli: 8.3 (3.0) mA
Healthy male volunteers [1]; [10]
  Pain threshold after 5 cutaneous electrical stimuli: 8.7 (3.4) mA
Healthy male volunteers [1]; [11]
  Pain threshold after 5 cutaneous electrical stimuli: 8.7 (3.4) mA
Healthy male volunteers [1]; [12]
  Pain threshold after 5 cutaneous electrical stimuli: 9.3 (2.9) mA
Healthy male volunteers [1]; [13]
  Pain threshold after 5 cutaneous electrical stimuli: 9.9 (3.3) mA
Healthy male volunteers [1]; [14]
  Pain threshold after 5 cutaneous electrical stimuli: 9.7 (3.3) mA
Healthy male volunteers [2]; main analysis, pairwise comparison within the time-points
  DSST score compared with tolterodine at 120 min: not
Healthy male volunteers [2]; 120 min after drug administration
  DSST-score: 74.9 (14.7)
Healthy male volunteers [2]; after flumazenil 0.2 mg iv
  DSST-score: 81.1 (12.1)
Healthy male volunteers [3]; [9]
  Conditioned pain modulation: 71 (98) kPa
Healthy male volunteers [3]; [13]
  Conditioned pain modulation: 99 (99) kPa
Healthy male volunteers [3]; [14]
  Conditioned pain modulation: 58 (67) kPa
[4]; after 10 mg in healthy volunteers
  Time to maximum plasma concentration: 1.3 ± 0.2 h
[4]; after 20 mg in healthy volunteers
  Time to maximum plasma concentration: 1.6 h
[4]; general statement
  Time to maximum plasma concentration: about 2 h
[4]; drug background
  Bioavailability: 90%
  Half life (t1/2): circa 20 h
Healthy male volunteers [5]; [15]
  VAS after von Frey hair 8 mN: 1.1 (1.2)
  VAS after von Frey hair 16 mN: 2.0 (2.1)
  VAS after von Frey hair 32 mN: 2.0 (1.6)
  VAS after von Frey hair 64 mN: 2.3 (2.0)
  VAS after von Frey hair 128 mN: 2.9 (2.0)
  VAS after von Frey hair 256 mN: 3.3(2.3)
  VAS after von Frey hair 512 mN: 4.5 (2.5)
Healthy male volunteers [5]; [16]
  VAS after von Frey hair 8 mN: 1.9 (3.3)
  VAS after von Frey hair 16 mN: 2.3 (3.2)
  VAS after von Frey hair 32 mN: 2.4 (2.8)
  VAS after von Frey hair 64 mN: 2.5 (2.0)
  VAS after von Frey hair 128 mN: 3.4 (2.7)
  VAS after von Frey hair 256 mN: 3.7 (2.6)
  VAS after von Frey hair 512 mN: 4.8 (2.8)
Healthy male volunteers [5]; [17]
  VAS after von Frey hair 8 mN: 1.2 (1.4)
  VAS after von Frey hair 16 mN: 1.4 (1.6)
  VAS after von Frey hair 32 mN: 2.1 (2.2)
  VAS after von Frey hair 64 mN: 2.1 (1.9)
  VAS after von Frey hair 128 mN: 3.5 (2.3)
  VAS after von Frey hair 256 mN: 3.9 (2.5)
  VAS after von Frey hair 512 mN: 4.9 (2.6)
Healthy male volunteers [5]; [18]
  VAS after von Frey hair 8 mN: 1.3 (1.4)
  VAS after von Frey hair 16 mN: 1.3 (1.5)
  VAS after von Frey hair 32 mN: 1.9 (1.9)
  VAS after von Frey hair 64 mN: 2.7 (2.7)
  VAS after von Frey hair 128 mN: 3.0 (2.6)
  VAS after von Frey hair 256 mN: 3.8 (2.6)
  VAS after von Frey hair 512 mN: 4.7 (2.7)
Healthy male volunteers [5]; [19]
  VAS after von Frey hair 8 mN: 1.1 (1.1)
  VAS after von Frey hair 16 mN: 1.3 (1.1)
  VAS after von Frey hair 32 mN: 1.9 (1.9)
  VAS after von Frey hair 64 mN: 2.2 (1.7)
  VAS after von Frey hair 128 mN: 2.9 (2.1)
  VAS after von Frey hair 256 mN: 3.9 (2.2)
  VAS after von Frey hair 512 mN: 5.1 (2.5)
Healthy male volunteers [5]; subgroup analysis (n = 8), 30 minutes, mean
  VAS after von Frey hair 512 mN: 3.2
Healthy male volunteers [5]; subgroup analysis (n = 8), 120 minutes, mean
  VAS after von Frey hair 512 mN: 5.1
Healthy male volunteers [6]; [9]
  Pain threshold after single cutaneous electrical stimulation: 10.0 (2.9) mA
Healthy male volunteers [6]; [10]
  Pain threshold after single cutaneous electrical stimulation: 10.3 (3.6) mA
Healthy male volunteers [6]; [11]
  Pain threshold after single cutaneous electrical stimulation: 10.2 (3.8) mA
Healthy male volunteers [6]; [12]
  Pain threshold after single cutaneous electrical stimulation: 11.2 (3.3) mA
Healthy male volunteers [6]; [13]
  Pain threshold after single cutaneous electrical stimulation: 12.2 (3.9) mA
Healthy male volunteers [6]; [14]
  Pain threshold after single cutaneous electrical stimulation: 12.0 (4.3) mA
Healthy male volunteers [7]; [9]
  Maximal VAS during 20 cutaneous electrical stimuli: 4.7 (1.8)
  AUC of VAS during 20 cutaneous electrical stimuli: 332 (142)
Healthy male volunteers [7]; [10]
  Maximal VAS during 20 cutaneous electrical stimuli: 4.9 (2.2)
  AUC of VAS during 20 cutaneous electrical stimuli: 338 (152)
Healthy male volunteers [7]; [11]
  Maximal VAS during 20 cutaneous electrical stimuli: 4.7 (1.9)
  AUC of VAS during 20 cutaneous electrical stimuli: 341 (167)
Healthy male volunteers [7]; [12]
  Maximal VAS during 20 cutaneous electrical stimuli: 4.3 (2.0)
  AUC of VAS during 20 cutaneous electrical stimuli: 328 (169)
Healthy male volunteers [7]; [13]
  Maximal VAS during 20 cutaneous electrical stimuli: 4.2 (1.8)
  AUC of VAS during 20 cutaneous electrical stimuli: 314 (146)
Healthy male volunteers [7]; [14]
  Maximal VAS during 20 cutaneous electrical stimuli: 4.5 (1.7)
  AUC of VAS during 20 cutaneous electrical stimuli: 339 (150)
Healthy male volunteers [8]; 30 min after medication
  Area of dynamic hyperalgesia: 22.3 (13.2) cm^2
Healthy male volunteers [8]; 60 min after medication
  Area of dynamic hyperalgesia: 22.9 (12.4) cm^2
Healthy male volunteers [8]; 90 min after medication
  Area of dynamic hyperalgesia: 22.4 (13.6) cm^2
Healthy male volunteers [8]; 120 min after medication
  Area of dynamic hyperalgesia: 16.7 (13.0) cm^2
Healthy male volunteers [8]; after flumazenil 0.2 mg iv
  Area of dynamic hyperalgesia: 21.3 (14.6) cm^2
